# Laboratory results taken from ChEMBL document CHEMBL1268925 (J Med Chem, 2010).
# Target: T1, Dihydrofolate reductase (Bacillus anthracis, UniProt Q81R22)
# T1 sequence (Q81R22 whole entry): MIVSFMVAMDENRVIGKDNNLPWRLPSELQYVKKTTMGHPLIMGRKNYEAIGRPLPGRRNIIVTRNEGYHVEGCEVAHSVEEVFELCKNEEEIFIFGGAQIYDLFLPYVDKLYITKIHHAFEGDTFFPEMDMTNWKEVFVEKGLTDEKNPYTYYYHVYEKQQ
SMILES,IC50,Ki
COc1cc(C(C)(C)C#Cc2c(C)nc(N)nc2N)cc(OC)c1OC,12.7 µM,4.28 µM
CCc1nc(N)nc(N)c1C#CCc1cc(OC)ccc1-c1ccccc1,7.7 µM,2.59 µM
